Source: patent US20150344457A1, “METHODS OF INHIBITING PRMT5” (EPIZYME, INC., priority 2012, published 2015)

What follows are compounds tested against T1, PRMT5/MEP50 (Homo sapiens, UniProt O14744) (assay: PRMT5 Biochemical Assay (PRMT5/MEP50 enzyme assay on peptide substrate, 3H-SAM Flashplate)). Details: Table D-2; read-out: Biochemical IC50.
T1 construct: Expressed full-length human Flag-PRMT5/6His-MeP50 protein complex was purified; made in house; host or cells: Spodoptera frugiperda (SF9) insect cells, baculovirus (pDEST8)
T1 sequence (O14744 with tags, fused parts or gaps): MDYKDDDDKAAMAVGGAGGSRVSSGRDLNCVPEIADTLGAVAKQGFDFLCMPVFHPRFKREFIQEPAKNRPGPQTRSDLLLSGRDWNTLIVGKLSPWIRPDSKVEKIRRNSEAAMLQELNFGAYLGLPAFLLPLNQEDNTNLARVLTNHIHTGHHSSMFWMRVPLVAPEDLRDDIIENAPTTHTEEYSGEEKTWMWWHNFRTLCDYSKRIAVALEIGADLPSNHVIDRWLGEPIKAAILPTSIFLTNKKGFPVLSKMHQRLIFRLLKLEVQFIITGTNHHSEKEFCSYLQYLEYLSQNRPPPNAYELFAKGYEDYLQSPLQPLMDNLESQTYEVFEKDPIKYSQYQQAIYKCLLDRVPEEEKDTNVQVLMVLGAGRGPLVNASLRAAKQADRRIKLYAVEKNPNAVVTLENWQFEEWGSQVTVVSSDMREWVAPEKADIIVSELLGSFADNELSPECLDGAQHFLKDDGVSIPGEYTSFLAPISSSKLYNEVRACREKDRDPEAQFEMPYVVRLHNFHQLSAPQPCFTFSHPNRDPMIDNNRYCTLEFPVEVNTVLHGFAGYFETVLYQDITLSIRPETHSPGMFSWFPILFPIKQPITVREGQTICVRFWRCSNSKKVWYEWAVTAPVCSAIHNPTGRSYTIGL
T1 sequence (Q9BQA1 with tags, fused parts or gaps partner limits assumed): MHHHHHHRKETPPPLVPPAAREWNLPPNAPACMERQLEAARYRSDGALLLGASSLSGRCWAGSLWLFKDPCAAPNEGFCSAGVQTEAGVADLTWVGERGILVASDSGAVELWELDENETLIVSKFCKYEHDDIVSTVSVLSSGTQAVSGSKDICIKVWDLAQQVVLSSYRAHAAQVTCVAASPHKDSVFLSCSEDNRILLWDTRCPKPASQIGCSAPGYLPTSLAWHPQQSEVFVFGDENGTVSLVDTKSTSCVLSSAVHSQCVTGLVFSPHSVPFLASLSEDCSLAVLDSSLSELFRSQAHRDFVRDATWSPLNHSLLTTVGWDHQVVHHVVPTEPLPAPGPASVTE
Text: S-adenosylmethionine (SAM), S-adenosylhomocysteine (SAH), bicine, KCl, Tween20, dimethylsulfoxide (DMSO), bovine skin gelatin (BSG), and Tris(2-carboxyethyl)phosphine hydrochloride solution (TCEP) were purchased from Sigma-Aldrich at the highest level of purity possible. ^3H-SAM was purchase from American Radiolabeled Chemicals with a specific activity of 80 Ci/mmol 384-well streptavidin Flashplates were purchased from PerkinElmer.
Peptide representative of human histone H4 residues 1-15 was synthesized with a C-terminal linker-affinity tag motif and a C-terminal amide cap by 21st Century Biochemicals. […] The sequence was Ac-[…][K-Biot]-amide (SEQ ID NO.:3).
Full-length human MEP50 (NM_024102) clone was amplified from a human testis cDNA library incorporating a 5′ sequence encoding a 6-histidine tag (MHHHHHH) (SEQ ID NO.:5) fused directly to Arg 2 of MEP50. The amplified genes were sublconed into pENTR/D/TEV (Life Technologies) and subsequently transferred by Gateway™ attL×attR recombination to pDEST8 baculvirus expression vector (Life Technologies).
Recombinant baculovirus and Baculovirus-Infected Insect Cells (BIIC) were generated according to Bac-to-Bac kit instructions (Life Technologies) and Wasilko, 2006, respectively. Protein over-expression was accomplished by infecting exponentially growing Spodoptera frugiperda (SF9) cell culture at 1.2×10^6 cell/ml with a 5000 fold dilution of BIIC stock. Infections were carried out at 27° C. for 72 hours, harvested by centrifugation, and stored at −80° C. for purification.
Flag-PRMT5/6His-MeP50 was eluted with 300 mM Imidazole in the same buffer. […] Reference: Wasilko, D. J. and S. E. Lee: “TIPS: titerless infected-cells preservation and scale-up” Bioprocess J., 5 (2006), pp. 29-32.
General Procedure for PRMT5/MEP50 Enzyme Assays on Peptide Substrates.
The assays were all performed in a buffer consisting of 20 mM Bicine (pH=7.6), 1 mM TCEP, 0.005% BSG, and 0.002% Tween20, prepared on the day of use. Compounds in 100% DMSO (1 ul) were spotted into a polypropylene 384-well V-bottom plates (Greiner) using a Platemate Plus outfitted with a 384-channel head (Thermo Scientific). DMSO (1 ul) was added to Columns 11, 12, 23, 24, rows A-H for the maximum signal control and 1 ul of SAH, a known product and inhibitor of PRMT5/MEP50, was added to columns 11, 12, 23, 24, rows I-P for the minimum signal control. A cocktail (40 ul) containing the PRMT5/MEP50 enzyme and the peptide was added by Multidrop Combi (Thermo-Fisher). The compounds were allowed to incubate with PRMT5/MEP50 for 30 min at 25 degrees Celsius, then a cocktail (10 ul) containing ^3H-SAM was added to initiate the reaction (final volume=51 ul). The final concentrations of the components were as follows: PRMT5/MEP50 was 4 nM, ^3H-SAM was 75 nM, peptide was 40 nM, SAH in the minimum signal control wells was 100 uM, and the DMSO concentration was 1%. The assays were stopped by the addition of non-radioactive SAM (10 ul) to a final concentration of 600 uM, which dilutes the ^3H-SAM to a level where its incorporation into the peptide substrate is no longer detectable. 50 ul of the reaction in the 384-well polypropylene plate was then transferred to a 384-well Flashplate and the biotinylated peptides were allowed to bind to the streptavidin surface for at least 1 hour before being washed three times with 0.1% Tween20 in a Biotek ELx405 plate washer. The plates were then read in a PerkinElmer TopCount plate reader to measure the quantity of ^3H-labeled peptide bound to the Flashplate surface, measured as disintegrations per minute (dpm) or alternatively, referred to as counts per minute (cpm).
where dpm=disintegrations per minute, cmpd=signal in assay well, and min and max are the respective minimum and maximum signal controls.
where top and bottom are the normally allowed to float, but may be fixed at 100 or 0 respectively in a 3-parameter fit.

IC50 | Structure (SMILES)
1 to 10 µM | OC(COc1ccccc1C1CCCCC1)CN1CCc2ccccc2C1 (stereo not shown) [Compound D8]
0.101 to 1 µM | OC(COc1ccc(Cc2ccccc2)cc1)CN1CCc2ccccc2C1 (stereo not shown) [Compound D10]
0.101 to 1 µM | OC(COCc1cc(-c2ccc(Cl)cc2)no1)CN1CCc2ccccc2C1 (stereo not shown) [Compound D11]
1 to 10 µM | OC(COc1cccc(CNC2CCNCC2)c1)CN1CCc2ccccc2C1 (stereo not shown) [Compound D13]
1 to 10 µM | OC(COc1cccc(CN2CCCCC2)c1)CN1CCc2ccccc2C1 (stereo not shown) [Compound D14]
1 to 10 µM | OC(COc1cccc2ccc(N3CCOCC3)nc12)CN1CCc2ccccc2C1 (stereo not shown) [Compound D15]
1 to 10 µM | OC(COc1ccccc1-c1ccno1)CN1CCc2ccccc2C1 (stereo not shown) [Compound D16]
0.101 to 1 µM | Cc1cc(OCC(O)CN2CCc3ccccc3C2)c(C)cc1CN1CCOCC1 (stereo not shown) [Compound D17]
1 to 10 µM | OC(COc1ccc(OCc2ccccc2)cc1)CN1CCc2ccccc2C1 (stereo not shown) [Compound D19]
1 to 10 µM | OC(COc1cccc(OCc2ccccc2)c1)CN1CCc2ccccc2C1 (stereo not shown) [Compound D20]
1 to 10 µM | OC(COC1CCN(Cc2ccccc2)C1)CN1CCc2ccccc2C1 (stereo not shown) [Compound D35]
10 to 40 µM | OC(CCc1cccc(CNC2CCCC2)c1)CN1CCc2ccccc2C1 (stereo not shown) [Compound D36]
> 40 µM | COc1ccc(Cn2nccc2-c2ccc(OC[C@@H](O)CN3CCc4ccccc4C3)cc2)cc1 [Compound D38]
1 to 10 µM | OC(COc1cccc(-c2cccnc2)c1)CN1CCc2ccccc2C1 (stereo not shown) [Compound D40]
1 to 10 µM | Cn1cc(-c2cccc(OCC(O)CN3CCc4ccccc4C3)c2)cn1 (stereo not shown) [Compound D44]
1 to 10 µM | OC(COCc1ccc(CN2CCOCC2)cc1)CN1CCc2ccccc2C1 (stereo not shown) [Compound D46]
1 to 10 µM | OC(COc1ccc(-c2ccn[nH]2)cc1)CN1CCc2ccccc2C1 (stereo not shown) [Compound D48]
1 to 10 µM | CC1c2ccccc2CCN1CC(O)COc1cccc(CNC2CCCC2)c1 (stereo not shown) [Compound D50]
> 40 µM | CC1Cc2ccccc2CN1CC(O)COc1cccc(CNC2CCCC2)c1 (stereo not shown) [Compound D51]
1 to 10 µM | OC(COc1cccc(C2CCCCC2)c1)CN1CCc2ccccc2C1 (stereo not shown) [Compound D52]
> 40 µM | COc1cccc2c1CCN(CC(O)COc1cccc(CNC3CCCC3)c1)C2 (stereo not shown) [Compound D54]
1 to 10 µM | OC(COc1cccc(-c2cccc(Oc3ccccc3)c2)c1)CN1CCc2ccccc2C1 (stereo not shown) [Compound D55]

IC50 | Structure (SMILES)
> 40 µM | CC1CN(CC(O)COc2cccc(CNC3CCCC3)c2)Cc2ccccc21 (stereo not shown) [Compound D56]
1 to 10 µM | OC(COc1cccc(C2=CCCCC2)c1)CN1CCc2ccccc2C1 (stereo not shown) [Compound D57]
> 40 µM | CN(C)S(=O)(=O)c1cccc(-c2cccc(OCC(O)CN3CCc4ccccc4C3)c2)c1 (stereo not shown) [Compound D61]
1 to 10 µM | COc1ccc(Cl)c(-c2cccc(OCC(O)CN3CCc4ccccc4C3)c2)c1 (stereo not shown) [Compound D64]
0.101 to 1 µM | Cn1cnc2ccc(N3CCCC(OCC(O)CN4CCc5ccccc5C4)C3)cc21 (stereo not shown) [Compound D66]
1 to 10 µM | OC(COc1cccc(-c2ccc(Cl)cc2)c1)CN1CCc2ccccc2C1 (stereo not shown) [Compound D69]
1 to 10 µM | Oc1ccc(-c2cccc(OCC(O)CN3CCc4ccccc4C3)c2)cc1F (stereo not shown) [Compound D70]
1 to 10 µM | COc1ccccc1-c1cccc(OCC(O)CN2CCc3ccccc3C2)c1 (stereo not shown) [Compound D71]
1 to 10 µM | OCc1ccc(-c2cccc(OCC(O)CN3CCc4ccccc4C3)c2)cc1 (stereo not shown) [Compound D73]
1 to 10 µM | OC(COc1cccc(-c2cncc(F)c2)c1)CN1CCc2ccccc2C1 (stereo not shown) [Compound D76]
1 to 10 µM | OC(COc1cccc(-c2ccc(F)cc2)c1)CN1CCc2ccccc2C1 (stereo not shown) [Compound D77]
1 to 10 µM | Cc1ccc(-c2cccc(OCC(O)CN3CCc4ccccc4C3)c2)cn1 (stereo not shown) [Compound D78]
10 to 40 µM | O=C(NC1CCOCC1)c1cccc(NCC(O)CN2CCc3ccccc3C2)c1 (stereo not shown) [Compound D79]
1 to 10 µM | OC(COc1cccc(-c2cccc(C(F)(F)F)c2)c1)CN1CCc2ccccc2C1 (stereo not shown) [Compound D87]
1 to 10 µM | OC(COc1cccc(-c2cccc(Cl)c2)c1)CN1CCc2ccccc2C1 (stereo not shown) [Compound D91]
1 to 10 µM | Oc1ccc(-c2cccc(OCC(O)CN3CCc4ccccc4C3)c2)cc1 (stereo not shown) [Compound D96]
1 to 10 µM | OC(COc1cccc(-c2ccncc2)c1)CN1CCc2ccccc2C1 (stereo not shown) [Compound D97]
1 to 10 µM | OC(COc1cccc(-c2ccccn2)c1)CN1CCc2ccccc2C1 (stereo not shown) [Compound D98]
10 to 40 µM | CN(CC(O)CN1CCc2ccccc2C1)c1cccc(C(=O)NC2CCOCC2)c1 (stereo not shown) [Compound D99]
1 to 10 µM | COc1cccc2c1CN(CC(O)COc1cccc(-c3ccc4ncn(C)c4c3)c1)CC2 (stereo not shown) [Compound D100]
1 to 10 µM | CC1CN(CC(O)COc2cccc(-c3ccc4ncn(C)c4c3)c2)Cc2ccccc21 (stereo not shown) [Compound D101]
1 to 10 µM | Cn1cc2cc(-c3cccc(OCC(O)CN4CCc5ccccc5C4)c3)ccc2n1 (stereo not shown) [Compound D115]

IC50 | Structure (SMILES)
1 to 10 µM | Cn1cnc2ccc(-c3nccc(NCC(O)CN4CCc5ccccc5C4)n3)cc21 (stereo not shown) [Compound D120]
1 to 10 µM | CC1Cc2ccccc2CN1CC(O)COc1cccc(-c2ccc3ncn(C)c3c2)c1 (stereo not shown) [Compound D122]
1 to 10 µM | OC(COc1cccc(-c2cc(Cl)cc(C(F)(F)F)c2)c1)CN1CCc2ccccc2C1 (stereo not shown) [Compound D128]
1 to 10 µM | OC(COc1cccc(-c2ccc(C(F)(F)F)cc2)c1)CN1CCc2ccccc2C1 (stereo not shown) [Compound D133]
1 to 10 µM | OC(COc1cccc(-c2cncnc2)c1)CN1CCc2ccccc2C1 (stereo not shown) [Compound D140]
1 to 10 µM | COc1cccc2c1CCN(CC(O)COc1cccc(-c3ccc4ncn(C)c4c3)c1)C2 (stereo not shown) [Compound D142]
> 40 µM | Cn1cnc2ccc(-c3cccc(OCC(O)CN4CCc5ccccc5C4Cc4ccccc4)c3)cc21 (stereo not shown) [Compound D143]
1 to 10 µM | CCOC(=O)CC1c2ccccc2CCN1CC(O)COc1cccc(-c2ccc3ncn(C)c3c2)c1 (stereo not shown) [Compound D144]
> 40 µM | COc1cc2c(cc1OC)CN(CC(O)COc1cccc(-c3ccc4ncn(C)c4c3)c1)CC2 (stereo not shown) [Compound D146]
1 to 10 µM | COc1ncc(-c2cccc(OCC(O)CN3CCc4ccccc4C3)c2)cn1 (stereo not shown) [Compound D153]
1 to 10 µM | OC(COc1cccc(-c2cnccn2)c1)CN1CCc2ccccc2C1 (stereo not shown) [Compound D155]
1 to 10 µM | O=C(Nc1cccc(OCC(O)CN2CCc3ccccc3C2)c1)c1cnco1 (stereo not shown) [Compound D158]
1 to 10 µM | O=C(Nc1cccc(OCC(O)CN2CCc3ccccc3C2)c1)c1cocn1 (stereo not shown) [Compound D159]
1 to 10 µM | Cn1cnc2nc(-c3cccc(OCC(O)CN4CCc5ccccc5C4)c3)ncc21 (stereo not shown) [Compound D165]
1 to 10 µM | OC(COC1CCN(c2ccccc2)C1)CN1CCc2ccccc2C1 (stereo not shown) [Compound D175]
10 to 40 µM | COc1ccc2c(c1)CN(CC(O)COc1cccc(-c3ccc4ncn(C)c4c3)c1)CC2 (stereo not shown) [Compound D177]
> 40 µM | Cn1cnc2ccc(-c3cccc(OCC(O)CN4CCc5ccccc5C4COc4ccccc4)c3)cc21 (stereo not shown) [Compound D178]
1 to 10 µM | O=C(c1cncc(-c2cccc(OCC(O)CN3CCc4ccccc4C3)c2)c1)N1CCCC1 (stereo not shown) [Compound D181]
1 to 10 µM | O=C(Nc1cccc(OCC(O)CN2CCc3ccccc3C2)c1)c1ccnnc1 (stereo not shown) [Compound D184]
1 to 10 µM | OC(COc1cccc(-c2ccncc2F)c1)CN1CCc2ccccc2C1 (stereo not shown) [Compound D190]
